Assay results taken from patent publication US10144706B2 (BRISTOL-MYERS SQUIBB COMPANY, priority 2016, dated 2018).

Molecular target: T1, PD-1/PD-L1 interaction (PD-1-Ig / PD-L1-His) (Homo sapiens, UniProt Q9NZQ7)
T1 construct: hPDL1(18-239)-TVMV-His; TVMV protease site linker (C); made in house; host or cells: HEK293T
Test: PD-1/PD-L1 Homogenous Time-Resolved Fluorescence (HTRF) binding assay
Settings: IC50 range class; PD-L1-His 10 nM, PD-1-Ig 20 nM; read-out: Range or IC50
Method in brief: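 Human PD-L1-His (10 nM final) was pre-incubated with inhibitor for 15 min, then PD-1-Ig (20 nM final) was added for a further 15 min in dPBS with 0.1% BSA and 0.05% Tween-20. Binding was detected by HTRF using Eu-cryptate anti-Ig (1 nM) and APC anti-His (20 nM).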

T1 sequence (Q9NZQ7 with tags, fused parts or gaps): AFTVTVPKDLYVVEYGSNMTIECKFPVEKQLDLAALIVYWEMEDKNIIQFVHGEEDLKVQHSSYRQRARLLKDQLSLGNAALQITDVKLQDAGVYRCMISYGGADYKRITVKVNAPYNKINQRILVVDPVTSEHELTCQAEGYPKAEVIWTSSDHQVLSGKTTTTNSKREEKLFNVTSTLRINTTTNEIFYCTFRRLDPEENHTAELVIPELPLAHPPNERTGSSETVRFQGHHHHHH

Row | SMILES | IC50 [nM]
1 | Cc1c(OCCCN(CC#N)C[C@H](O)CO)cccc1-c1cccc(OCCCN(CC#N)C[C@H](O)CO)c1C [Example 2100, 2,2′-((((2,2′-dimethyl-[1,1′-biphenyl]-3,3′-diyl)bis(oxy))bis(propane-3,1-diyl))bis(((S)-2,3-dihydroxypropyl)azanediyl))diacetonitrile] | 20.1 to 90
2 | Cc1c(OCCCN(CCc2ccccn2)C[C@H](O)CO)cccc1-c1cccc(OCCCN(CCc2ccccn2)C[C@H](O)CO)c1C [Example 2101, (2S,2′S)-3,3′-((((2,2′-dimethyl-[1,1′-biphenyl]-3,3′-diyl)bis(oxy))bis(propane-3,1-diyl))bis((2-(pyridin-2-yl)ethyl)azanediyl))bis(propane-1,2-diol)] | 20.1 to 90
3 | Cc1c(OCCCN(CCc2cccnc2)C[C@H](O)CO)cccc1-c1cccc(OCCCN(CCc2cccnc2)C[C@H](O)CO)c1C [Example 2102, (2S,2′S)-3,3′-((((2,2′-dimethyl-[1,1′-biphenyl]-3,3′-diyl)bis(oxy))bis(propane-3,1-diyl))bis((2-(pyridin-3-yl)ethyl)azanediyl))bis(propane-1,2-diol)] | 20.1 to 90
4 | Cc1c(OCCCNC[C@H](O)CO)cccc1-c1cccc(OCCCN(CCc2cccnc2)C[C@H](O)CO)c1C [Example 2103, (S)-3-((3-((3′-(3-(((S)-2,3-dihydroxypropyl)(2-(pyridin-3-yl)ethyl)amino)propoxy)-2,2′-dimethyl-[1,1′-biphenyl]-3-yl)oxy)propyl)amino)propane-1,2-diol] | 0.04 to 20

Other lines, results leading:

Row | IC50 [nM] | SMILES
5 | 20.1 to 90 | Cc1c(OCCCN2CCCCC2)cccc1-c1cccc(OCCCN2CC[C@@H](O)C2)c1C [Example 2105, (R)-1-(3-((2,2′-dimethyl-3′-(3-(piperidin-1-yl)propoxy)-[1,1′-biphenyl]-3-yl)oxy)propyl)pyrrolidin-3-ol]
6 | 20.1 to 90 | Cc1c(OCCCN2CCC(CO)CC2)cccc1-c1cccc(OCCCN2CC[C@@H](O)C2)c1C [Example 2106, (R)-1-(3-((3′-(3-(4-(hydroxymethyl)piperidin-1-yl)propoxy)-2,2′-dimethyl-[1,1′-biphenyl]-3-yl)oxy)propyl)pyrrolidin-3-ol]
7 | 20.1 to 90 | CC(=O)NC1CCN(CCCOc2cccc(-c3cccc(OCCCN4CC[C@@H](O)C4)c3C)c2C)C1 (stereo partly drawn) [Example 2107, N-(1-(3-((3′-(3-((R)-3-hydroxypyrrolidin-1-yl)propoxy)-2,2′-dimethyl-[1,1′-biphenyl]-3-yl)oxy)propyl)pyrrolidin-3-yl)acetamide]
8 | 90.1 to 1000 | Cc1c(OCCCN2CCN(c3ccccn3)CC2)cccc1-c1cccc(OCCCN2CC[C@@H](O)C2)c1C [Example 2108, (R)-1-(3-((2,2′-dimethyl-3′-(3-(4-(pyridin-2-yl)piperazin-1-yl)propoxy)-[1,1′-biphenyl]-3-yl)oxy)propyl)pyrrolidin-3-ol]
9 | 90.1 to 1000 | Cc1c(OCCCN2CCN(CC(=O)NC(C)C)CC2)cccc1-c1cccc(OCCCN2CC[C@@H](O)C2)c1C [Example 2109, (R)-2-(4-(3-((3′-(3-(3-hydroxypyrrolidin-1-yl)propoxy)-2,2′-dimethyl-[1,1′-biphenyl]-3-yl)oxy)propyl)piperazin-1-yl)-N-isopropylacetamide]
10 | 90.1 to 1000 | Cc1c(OCCCN(C)CCc2ccccc2)cccc1-c1cccc(OCCCN2CC[C@@H](O)C2)c1C [Example 2110, (R)-1-(3-((2,2′-dimethyl-3′-(3-(methyl(phenethyl)amino)propoxy)-[1,1′-biphenyl]-3-yl)oxy)propyl)pyrrolidin-3-ol]
11 | 20.1 to 90 | COc1ccccc1N1CCN(CCCOc2cccc(-c3cccc(OCCCN4CC[C@@H](O)C4)c3C)c2C)CC1 [Example 2111, (R)-1-(3-((3′-(3-(4-(2-methoxyphenyl)piperazin-1-yl)propoxy)-2,2′-dimethyl-[1,1′-biphenyl]-3-yl)oxy)propyl)pyrrolidin-3-ol]
